Measured values reported in patent publication US20090275551A1, “Fluvastatin for the treatment of patients with a history of muscle related side effects with other statins” (priority 2007, published 2009).

Experiments:
LDL-C = assay: Randomized, double-blind 12-week study: lipid-lowering efficacy in patients with prior statin MRSEs; type: in vivo, human (patients)
Protocol: (§1) A randomized, double-blind, double-dummy, parallel-group, multicenter study evaluating the efficacy and tolerability of fluvastatin XL 80 mg/day, and ezetimibe 10 mg/day, alone or in combination, is conducted according to the ethical principles of the Guidelines for Good Clinical Practice and the Declaration of Helsinki of the World Medical Association. Patients are recruited in 27 centers in Germany, Greece, Norway, Russia, Turkey and the United States. The protocol is approved by local ethics committees or institutional review boards. Written, informed consent before randomization are provided by all patients.
After a minimum 5-week lead-in, drug wash-out and diet stabilization period, patients who fulfilled the study criteria are randomized in a 1:1:1 ratio to 12-week treatment with fluvastatin XL 80 mg plus matched placebo for ezetimibe 10 mg, or ezetimibe 10 mg plus matched placebo for fluvastatin XL 80 mg, or fluvastatin XL 80 mg plus ezetimibe 10 mg. […] Compliance is assessed by study personnel using pill counts at each visit. […]
Initial screening includes medical history, physical examination, clinical chemistry, hematology and urinalysis. […] AI and Apo-B are measured at weeks 0, 4, 8 and 12. High sensitivity C-reactive protein (hs-CRP) is measured at weeks 0 and 12. […] LDL-C is calculated using the Friedewald formula when triglyceride levels <400 mg/dL. […]

[1] = Randomized, double-blind 12-week study: safety, tolerability and recurrence of muscle-related side effects (MRSE); type: in vivo, human (patients)
Protocol: as §1
After a minimum 5-week lead-in, drug wash-out and diet stabilization period, patients who fulfilled the study criteria are randomized in a 1:1:1 ratio to 12-week treatment with fluvastatin XL 80 mg plus matched placebo for ezetimibe 10 mg, or ezetimibe 10 mg plus matched placebo for fluvastatin XL 80 mg, or fluvastatin XL 80 mg plus ezetimibe 10 mg. For blinding purposes tablets for fluvastatin XL/placebo and capsules for ezetimibe/placebo are used. Treatment assignment is unbiased and concealed from patients and investigator staff, by a randomization list produced by the sponsor using a validated system that automates the random assignment of treatment groups. Treatment remains fully blinded from the time of randomization until database lock. Trial medication is taken with water at bedtime. Compliance is assessed by study personnel using pill counts at each visit. Patients are to continue a low saturated fat and cholesterol-restricted diet and exercise regimen.
The study enrolls men and women 18 years of age or older with dyslipidemia who have previously experienced documented MRSEs that have led to cessation of statin treatment, or patients currently receiving statin treatment (other than fluvastatin) whose quality of life is affected by MRSEs and require switching to an alternative treatment. MRSEs include myalgia (defined as muscle ache, pain or discomfort), muscle cramps, lack of strength during effort, heaviness and/or weakness without creatine kinase elevation >3 times upper limit of normal.
Safety evaluations include regular monitoring of all adverse events, urine, hematology, blood chemistry, as well as physical examination and assessment of vital signs. MRSEs are assessed before and during the study using a standard questionnaire as detailed in Table 1.
Objectives of this study are to assess LDL-C reduction from baseline of (1) fluvastatin XL 80 mg in combination with ezetimibe 10 mg compared with ezetimibe 10 mg monotherapy and (2) fluvastatin XL 80 mg compared with ezetimibe 10 mg. Objectives of the study are also include (1) to assess the tolerability of fluvastatin XL 80 mg and ezetimibe 10 mg alone or in combination as determined by the rate of recurrence of MRSEs and the rate of recurrence of MRSEs leading to study drug discontinuation; (2) to assess the effect of fluvastatin XL 80 mg alone or in combination with ezetimibe 10 mg on total cholesterol, triglycerides, HDL-C, LDL-C:HDL-C ratio, Apo-AI and Apo-B compared with ezetimibe 10 mg monotherapy; (3) to determine the number of patients in each treatment group who reached target LDL-C levels according to the current National Cholesterol Education Program guidelines, (4) to assess the effect of fluvastatin XL 80 mg and ezetimibe 10 mg alone or in combination on hs-CRP; and (5) to assess the overall safety and tolerability profile of fluvastatin XL 80 mg and ezetimibe 10 mg alone or in combination.
With a sample size of 70 patients per treatment group, the study has 90% power to detect a difference of 9.65% between the population means, using a two-sided comparison with α equal to 0.05 and assuming a standard deviation of 17.5% in both groups. Efficacy and tolerability analyses are performed using the intent-to-treat population, defined as all patients receiving at least 1 dose of study drug. […]

Compound: O=C1[C@H](CC[C@H](O)c2ccc(F)cc2)[C@@H](c2ccc(O)cc2)N1c1ccc(F)cc1 [Ezetimibe]
- LDL-C lowering from baseline (LDL-C; baseline to week 12 or study end (LOCF), fluvastatin XL 80 mg/day, ezetimibe 10 mg/day): 15.6%
- patients achieving a LDL-C level of <100 mg/dL at study end (LDL-C; subgroup of 91 patients in the high-risk category): 4%
- MRSE recurrence leading to discontinuation, incidence rate ([1]; 12-week treatment): 8%
- MRSE recurrence leading to discontinuation, number of patients ([1]; 12-week treatment): 5 patients
- any MRSE recurrence, incidence rate ([1]; 12-week treatment): 24%
- any MRSE recurrence, number of patients ([1]; 12-week treatment): 16 patients
- patients prematurely discontinued from the study due to adverse events ([1]; 12-week treatment): 8 patients
- patients reporting an adverse event ([1]; 12-week treatment, safety population): 39 patients
- median time to first event, MRSE recurrence leading to discontinuation ([1]; in vivo): 2.57 weeks
- median time to first event, any MRSE recurrence ([1]; in vivo): 3.07 weeks
